Laboratory results reported in US20250127788A1, “PHARMACEUTICAL COMPOSITION CONTAINING TRIAZINE DERIVATIVE” (Shionogi & Co., Ltd., priority 2021, published 2025).

Test system: SARS-CoV-2
Assay: microbe, parasite or virus in culture
Type: cell-based
[1] = Severe acute respiratory syndrome coronavirus 2, VeroE6/TMPRSS2
[2] = Severe acute respiratory syndrome coronavirus 2, VeroE6/TMPRSS2, Beta strain (TY8-612)
[3] = Severe acute respiratory syndrome coronavirus 2, VeroE6/TMPRSS2, Gamma strain (TY7-501)
[4] = Severe acute respiratory syndrome coronavirus 2, VeroE6/TMPRSS2, Gamma strain (TY7-503)

Cn1cnc(Cn2c(=O)[nH]/c(=N\c3cc4cn(C)nc4cc3Cl)n(Cc3cc(F)c(F)cc3F)c2=O)n1
EC50 [1]: 370 nM
EC50 [2]: 400 nM
EC50 (Severe acute respiratory syndrome coronavirus 2, VeroE6/TMPRSS2, Delta strain (TY11-927-P1)): 410 nM
EC50 [3]: 500 nM
EC50 [4]: 430 nM
EC50 (Severe acute respiratory syndrome coronavirus 2, VeroE6/TMPRSS2, Lambda strain (TY33-456)): 270 nM
EC50 (Severe acute respiratory syndrome coronavirus 2, VeroE6/TMPRSS2, Mu strain (TY26-717)): 430 nM
EC50 (Severe acute respiratory syndrome coronavirus 2, VeroE6/TMPRSS2, Theta strain (TY28-444)): 290 nM

Cc1cncc(-n2c(=O)nc(Nc3cc4cn(C)nc4cc3Cl)n(Cc3cc(F)c(F)c(F)c3)c2=O)c1
EC50 [1]: 120 nM
EC50 (Severe acute respiratory syndrome coronavirus 2, VeroE6/TMPRSS2, Alpha strain (QHN001)): 140 nM
EC50 (Severe acute respiratory syndrome coronavirus 2, VeroE6/TMPRSS2, Alpha strain (QHN002)): 130 nM
EC50 (Severe acute respiratory syndrome coronavirus 2, VeroE6/TMPRSS2, Alpha strain (QK002)): 160 nM
EC50 [2]: 160 nM
EC50 [3]: 220 nM
EC50 [4]: 150 nM
